Experimental data taken from patent US12180208B1, “Pyrazolo[1,5-c]pyrido[3,4-e]pyrimidines as CK2 inhibitors” (KING FAISAL UNIVERSITY, priority 2024, dated 2024).

Assays:
[1] = test system: H1299 (lung); assay: In vitro cytotoxic activity (MTT) assay, H1299; assay type: cell-based; conditions: Homo sapiens, NCI-H1299, 96 hours exposure, read-out: Cytotoxicity activity IC50 (50% inhibition of cell proliferation)
Experimental: (§1) Compounds 1-16 were screened for their in vitro cytotoxic activity utilizing a 3-(4,5-dimethyl-thiazol-2-yl)-2,5-diphenyltetrazolium bromide (MTT) assay against selected cancer human cell lines consisting of PC3 (prostate), HCT116 (colon), A375 (melanoma), H1299 (lung), MIAPaCa-2 (pancreas), HL60 (leukemia), MCF7 (breast), MDA-MB-231 (breast) (T. Mosmann, J. Immunol. Meth., 1983, 65, 55-63). The cells were cultured at 37° C. in RMPI1640 medium supplemented with 10% fetal bovine serum, 50 IU/mL penicillin, and 50 μg/mL streptomycin in a 5% CO2 incubator. All cells were sub-cultured 3 times/week by trypsinisation. Viable cells were seeded and allowed to adhere for 12 hours before a test drug was added in 96-well plates at an initial density of 1.0×10^5 cells/mL. Tumor cell lines were separately exposed to various concentrations of the tested compounds followed by incubation at a temperature of 37° C. during 96 hours inside a medium of fresh RMPI 1640. Cells were subsequently incubated at 37° C. using MTT at 0.5 mg/mL during 4 hours. After removal of supernatant, formazan crystals were dissolved in isopropanol and the optical density was measured at 570 nm. CX-4945 was used as a positive control.

[2] = test system: HL60 (leukemia); assay: In vitro cytotoxic activity (MTT) assay, HL60; assay type: cell-based; conditions: Homo sapiens, HL-60, 96 hours exposure, read-out: Cytotoxicity activity IC50 (50% inhibition of cell proliferation)
Experimental: as §1

[3] = test system: MIAPaCa-2 (pancreas); assay: In vitro cytotoxic activity (MTT) assay, MIAPaCa-2; assay type: cell-based; conditions: Homo sapiens, MIA PaCa-2, 96 hours exposure, read-out: Cytotoxicity activity IC50 (50% inhibition of cell proliferation)
Experimental: as §1

[4] = test system: PC3 (prostate); assay: In vitro cytotoxic activity (MTT) assay, PC3; assay type: cell-based; conditions: Homo sapiens, 96 hours exposure, read-out: Cytotoxicity activity IC50 (50% inhibition of cell proliferation)
Experimental: as §1

[5] = test system: HCT116 (colon); assay: In vitro cytotoxic activity (MTT) assay, HCT116; assay type: cell-based; conditions: Homo sapiens, HCT-116, 96 hours exposure, read-out: Cytotoxicity activity IC50 (50% inhibition of cell proliferation)
Experimental: as §1

[6] = test system: MCF7 (breast); assay: In vitro cytotoxic activity (MTT) assay, MCF7; assay type: cell-based; conditions: Homo sapiens, 96 hours exposure, read-out: Cytotoxicity activity IC50 (50% inhibition of cell proliferation)
Experimental: as §1

[7] = test system: A375 (melanoma); assay: In vitro cytotoxic activity (MTT) assay, A375; assay type: cell-based; conditions: Homo sapiens, A-375, 96 hours exposure, read-out: Cytotoxicity activity IC50 (50% inhibition of cell proliferation)
Experimental: as §1

[8] = molecular target: T1, recombinant human CK2 (holoenzyme) (Homo sapiens, UniProt P68400); assay: CK2 Kinase Assay (33P-ATP, filter plate); assay type: biochemical; conditions: final ATP concentration 15 μM, 10 min at 30° C.; read-out: protein kinase CK2 IC50
T1 construct: purchased Millipore
T1 sequence (P68400 whole entry): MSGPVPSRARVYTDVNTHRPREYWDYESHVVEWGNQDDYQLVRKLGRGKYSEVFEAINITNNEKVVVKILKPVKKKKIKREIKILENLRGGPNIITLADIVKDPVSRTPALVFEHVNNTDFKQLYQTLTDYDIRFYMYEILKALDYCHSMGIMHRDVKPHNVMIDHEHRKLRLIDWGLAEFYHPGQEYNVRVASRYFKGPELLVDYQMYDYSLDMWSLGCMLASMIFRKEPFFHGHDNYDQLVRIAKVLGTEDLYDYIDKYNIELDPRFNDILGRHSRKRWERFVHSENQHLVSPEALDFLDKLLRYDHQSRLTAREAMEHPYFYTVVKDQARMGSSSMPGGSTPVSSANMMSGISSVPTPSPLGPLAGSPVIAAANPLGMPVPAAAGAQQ
T1 sequence (P67870 whole entry partner): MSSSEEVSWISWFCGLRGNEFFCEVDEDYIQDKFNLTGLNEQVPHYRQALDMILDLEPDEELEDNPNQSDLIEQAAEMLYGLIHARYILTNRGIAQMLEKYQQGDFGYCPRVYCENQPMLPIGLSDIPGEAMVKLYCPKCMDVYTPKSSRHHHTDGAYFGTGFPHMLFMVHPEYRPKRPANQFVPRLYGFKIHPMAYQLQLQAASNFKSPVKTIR
Experimental: CK2 Kinase Assay was conducted using the protocol as described in Pierre F. et al; J. Med. Chem. 2011, 54, 635-654. The tested compounds in aqueous solution were added at a volume of 10 μL to a reaction mixture comprising 10 μL of assay dilution buffer (ADB; 20 mM MOPS, pH 7.2, 25 mM β-glycerol phosphate, 5 mM EGTA, 1 mM sodium orthovanadate, and 1 mM dithiothreitol), 10 μL of substrate peptide (RRRDDDSDDD, dissolved in ADB at a concentration of 1 mM), 10 μL of recombinant human CK2 (RRββ-holoenzyme, 25 ng dissolved in ADB; Millipore). Reactions were initiated by the addition of 10 μL of ATP solution (90% 75 mMMgCl2, 75 μM ATP (final ATP concentration: 15 μM) dissolved in ADB; 10% [γ-33P] ATP (stock 1 mCi/100 μL; 3000 Ci/mmol (Perkin-Elmer) and maintained for 10 min at 30° C. The reactions were quenched with 100 μL of 0.75% phosphoric acid and then transferred to and filtered through a phosphor cellulose filter plate (Millipore). After washing each well five times with 0.75% phosphoric acid, the plate was dried under vacuum for 5 min and, following the addition of 15 μL of scintillation fluid to each well, the residual radioactivity was measured using a Wallac […] counter. The IC50 values were derived from eight concentrations of test inhibitors.

[9] = test system: MDA-MB-231 (breast); assay: In vitro cytotoxic activity (MTT) assay, MDA-MB-231; assay type: cell-based; conditions: Homo sapiens, 96 hours exposure, read-out: Cytotoxicity activity IC50 (50% inhibition of cell proliferation)
Experimental: as §1

For `O=C(O)c1cc2c3cnccc3nc(Nc3cccc(Cl)c3)n2n1` [Compound 1, 6-((3-chlorophenyl)amino)pyrazolo[1,5-c]pyrido[3,4-e]pyrimidine-9-carboxylic Acid], the IC50 [1] was 2.5 µM, the IC50 [2] was 5.1 µM and the IC50 [3] was 1.7 µM. It also gave an IC50 [4] of 2.3 µM, an IC50 [5] of 3.1 µM and an IC50 [6] of 5.6 µM. It also gave an IC50 [7] of 4.2 µM, an IC50 [8] of 0.055 µM and an IC50 [9] of 4.9 µM.
